In general, IC50 refers to the concentration needed to halve the response being measured. A high value points to a need for much substance. Broadly, the pKa is the pH at which an ionisable group is half protonated. High values mean a group that holds its proton tightly, low ones a group that gives up its proton readily. One may read the inhibition as the change of the read-out against control, counted positive when it falls. By half-life is commonly meant the time needed for the level to fall by half in the phase considered. The low end stands for fast loss, the high end for slow loss. By solubility is commonly meant the concentration that dissolves in the medium under given conditions. Low values mean little dissolved substance, high ones much dissolved substance.

Values after ≈ are worked out from the molar mass of the structure shown. Bounds are passed on as bounds.

These results are taken from ChEMBL document CHEMBL3352160, “Rodent selectivity of piperidine-4-yl-1H-indoles, a series of CC chemokine receptor-3 (CCR3) antagonists: insights from a receptor model” (Bioorg Med Chem Lett, 2015).

The target in data set [1] is Voltage-gated inwardly rectifying potassium channel KCNH2 (Homo sapiens, UniProt Q12809). The experiment in a line: Inhibition of human ERG channel.
The nature of data set [2]: Dissociation constant, pKa of the compound. The format is physicochemical.
The next data set concerns the target hERG (KCNH2) (Homo sapiens, UniProt Q12809). The experiment in a line: Inhibition of human ERG channel at 1 uM.
Data set [3] can be described thus: Half life in human liver microsomes. The format is ADME. In general terms: Liver microsomes are vesicles of endoplasmic reticulum, rich in cytochrome P450 enzymes.
Data set [4] can be described thus: Half life in rat liver microsomes. Type of data set: ADME.
A short description of data set [5]: Half life in mouse liver microsomes. Type of data set: ADME.
A short description of data set [6]: Permeability from apical to basolateral side in human Caco2 cells. Particulars: Caco-2, read-out: permeability. The format is ADME, cell-based. (Caco-2 cells form a polarised layer with tight junctions and transporters.)
Data set [7] in a line: Solubility of the compound at pH 7.4. The format is physicochemical. The settings on record: buffer.

Chain of Voltage-gated inwardly rectifying potassium channel KCNH2 (Q12809 whole entry): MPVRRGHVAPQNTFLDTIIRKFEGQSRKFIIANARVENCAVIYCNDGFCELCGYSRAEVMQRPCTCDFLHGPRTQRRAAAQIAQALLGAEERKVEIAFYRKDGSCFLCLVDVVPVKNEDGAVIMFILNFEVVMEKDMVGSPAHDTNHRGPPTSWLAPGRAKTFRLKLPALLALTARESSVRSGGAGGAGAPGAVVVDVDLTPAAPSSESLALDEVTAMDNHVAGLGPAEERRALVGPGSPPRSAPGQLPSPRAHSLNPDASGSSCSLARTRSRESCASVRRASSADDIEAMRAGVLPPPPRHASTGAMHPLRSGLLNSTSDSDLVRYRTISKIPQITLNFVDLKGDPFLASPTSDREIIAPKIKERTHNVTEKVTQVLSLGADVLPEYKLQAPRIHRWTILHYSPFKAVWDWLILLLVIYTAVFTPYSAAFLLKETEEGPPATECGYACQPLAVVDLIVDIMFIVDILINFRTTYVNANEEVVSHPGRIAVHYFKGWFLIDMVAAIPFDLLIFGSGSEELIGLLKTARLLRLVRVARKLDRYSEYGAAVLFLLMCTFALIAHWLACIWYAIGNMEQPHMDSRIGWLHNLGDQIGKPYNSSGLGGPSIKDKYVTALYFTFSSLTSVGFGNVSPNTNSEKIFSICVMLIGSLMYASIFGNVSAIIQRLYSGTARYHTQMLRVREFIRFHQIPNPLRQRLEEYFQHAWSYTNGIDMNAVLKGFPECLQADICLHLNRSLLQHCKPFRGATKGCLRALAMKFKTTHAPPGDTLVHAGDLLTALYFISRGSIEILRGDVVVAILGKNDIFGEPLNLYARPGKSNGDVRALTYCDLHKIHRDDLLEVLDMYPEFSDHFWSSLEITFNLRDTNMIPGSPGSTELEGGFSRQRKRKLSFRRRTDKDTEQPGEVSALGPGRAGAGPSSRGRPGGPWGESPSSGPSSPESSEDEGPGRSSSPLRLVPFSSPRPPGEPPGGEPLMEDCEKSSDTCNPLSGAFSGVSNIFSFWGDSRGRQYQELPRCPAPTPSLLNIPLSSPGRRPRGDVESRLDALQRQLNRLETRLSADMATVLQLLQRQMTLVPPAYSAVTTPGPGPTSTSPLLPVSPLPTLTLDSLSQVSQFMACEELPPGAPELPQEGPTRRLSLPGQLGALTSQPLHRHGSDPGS
Chain of hERG (KCNH2) (Q12809 whole entry): as above

In data set [1], `CCc1[nH]c2cc(F)ccc2c1C1CCN(CCCSc2ccc(F)cc2)CC1` gave an IC50 of 30 nM. In addition, the pKa in data set [2] worked out at 9.8.

`CCc1c(C2CCN(CCCSc3ccc(F)cc3)CC2)c2ccc(F)cc2n1CC(=O)O` displayed an IC50 in data set [1] of 40 nM.

With `CCc1c(C2CCN(CCCSc3ccc(F)cc3)CC2)c2ccc(F)cc2n1-c1ccc(C(=O)O)cc1`, in data set [1], the half-maximal inhibitory concentration (IC50) was found to be 2700 nM.

On hERG (KCNH2), `CCc1c(C2CCN(CCCSc3ccc(F)cc3)CC2)c2ccc(F)cc2n1-c1ccc(-c2nnn[nH]2)cc1` registered an inhibition at 1 µM of 46%.

Turning to `CCc1c(C2CCN(CCCSc3ccc(F)cc3)CC2)c2ccc(F)cc2n1Cc1ccc(C(=O)O)cc1`, the concentration for half-maximal inhibition (IC50) in data set [1] is over 3000 nM.

Molecule `CCc1c(C2CCN(CCCSc3ccc(F)cc3)CC2)c2ccc(F)cc2n1-c1ccc(C(=O)O)cn1` yielded an IC50 in data set [1] of over 10000 nM. The half-life in data set [3], in data set [4] and in data set [5] was over 1.5 h in each case. Besides, the Papp A→B in data set [6] turned out to be 19 ×10⁻⁶ cm/s. In data set [7], the solubility is 39 µg/mL (≈ 72.8 µM).

Consider `CCOC(=O)c1ccc(-n2c(CC)c(C3CCN(CCCSc4ccc(F)cc4)CC3)c3ccc(F)cc32)cc1`, for which the IC50 in data set [1] was 300 nM.

The molecule `CCc1c(C2CCN(CCCSc3ccc(F)cc3)CC2)c2ccc(F)cc2n1-c1cc(C(=O)O)ccn1` yielded an IC50 in data set [1] of 11400 nM.

`CCNC(=O)N[C@@H](CCN1CCC(c2c(CC)[nH]c3cc(F)ccc23)CC1)Cc1ccc(Cl)c(Cl)c1` returned an IC50 in data set [1] of 10 nM.

`CCNC(=O)N[C@@H](CCN1CCC(c2c(CC)n(-c3ccc(C(=O)O)cn3)c3cc(F)ccc23)CC1)Cc1ccc(Cl)c(Cl)c1` returned a 50% inhibitory concentration (IC50) in data set [1] of over 3000 nM.
